Key:
[1] = biological target: T1, HiBit-BRM fusion protein (Homo sapiens, UniProt P51531); test: HiBiT-BRM cell-based degradation assay (Nano-Glo HiBiT Lytic Detection); conditions: stable HeLa cell line expressing HiBiT-BRM, 24 h incubation; for BRM HiBit Degradation Maximum (%): top dose 30 μM; for DC50: read-out: BRM HiBit Degradation IC50
T1 construct: expressed in transfected cells
How it was run: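 HeLa cells stably expressing HiBiT-BRM were treated for 24 h with compounds (10-point 3-fold dilutions, 30 μM final top dose, in duplicate). HiBiT was detected by lytic LgBiT complementation luminescence. % degradation was normalized to DMSO (high control) and 2 μM of a reference BRM/BRG1 degrader (low control).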

[2] = biological target: T2, HiBit-BRG1 fusion protein (Homo sapiens, UniProt P51532); test: HiBiT-BRG1 cell-based degradation assay (Nano-Glo HiBiT Lytic Detection); conditions: stable HeLa cell line expressing HiBit-BRG1 and LgBit, 24 h incubation; for Dmax: top dose 30 μM, read-out: BRG1 HiBit Degradation Maximum (%); for DC50: read-out: BRMG1 HiBit Degradation IC50
T2 construct: expressed in transfected cells
How it was run: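 HeLa cells stably expressing HiBiT-BRG1 and LgBiT treated 24 h with 10-point 3-fold dilutions (top 30 μM, duplicate). Luminescence read after Nano-Glo HiBiT lytic reagent; % degradation relative to DMSO (high control) and 2 μM reference BRM/BRG1 degrader (low control).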

T1 sequence (P51531 whole entry, the tested form may be a part): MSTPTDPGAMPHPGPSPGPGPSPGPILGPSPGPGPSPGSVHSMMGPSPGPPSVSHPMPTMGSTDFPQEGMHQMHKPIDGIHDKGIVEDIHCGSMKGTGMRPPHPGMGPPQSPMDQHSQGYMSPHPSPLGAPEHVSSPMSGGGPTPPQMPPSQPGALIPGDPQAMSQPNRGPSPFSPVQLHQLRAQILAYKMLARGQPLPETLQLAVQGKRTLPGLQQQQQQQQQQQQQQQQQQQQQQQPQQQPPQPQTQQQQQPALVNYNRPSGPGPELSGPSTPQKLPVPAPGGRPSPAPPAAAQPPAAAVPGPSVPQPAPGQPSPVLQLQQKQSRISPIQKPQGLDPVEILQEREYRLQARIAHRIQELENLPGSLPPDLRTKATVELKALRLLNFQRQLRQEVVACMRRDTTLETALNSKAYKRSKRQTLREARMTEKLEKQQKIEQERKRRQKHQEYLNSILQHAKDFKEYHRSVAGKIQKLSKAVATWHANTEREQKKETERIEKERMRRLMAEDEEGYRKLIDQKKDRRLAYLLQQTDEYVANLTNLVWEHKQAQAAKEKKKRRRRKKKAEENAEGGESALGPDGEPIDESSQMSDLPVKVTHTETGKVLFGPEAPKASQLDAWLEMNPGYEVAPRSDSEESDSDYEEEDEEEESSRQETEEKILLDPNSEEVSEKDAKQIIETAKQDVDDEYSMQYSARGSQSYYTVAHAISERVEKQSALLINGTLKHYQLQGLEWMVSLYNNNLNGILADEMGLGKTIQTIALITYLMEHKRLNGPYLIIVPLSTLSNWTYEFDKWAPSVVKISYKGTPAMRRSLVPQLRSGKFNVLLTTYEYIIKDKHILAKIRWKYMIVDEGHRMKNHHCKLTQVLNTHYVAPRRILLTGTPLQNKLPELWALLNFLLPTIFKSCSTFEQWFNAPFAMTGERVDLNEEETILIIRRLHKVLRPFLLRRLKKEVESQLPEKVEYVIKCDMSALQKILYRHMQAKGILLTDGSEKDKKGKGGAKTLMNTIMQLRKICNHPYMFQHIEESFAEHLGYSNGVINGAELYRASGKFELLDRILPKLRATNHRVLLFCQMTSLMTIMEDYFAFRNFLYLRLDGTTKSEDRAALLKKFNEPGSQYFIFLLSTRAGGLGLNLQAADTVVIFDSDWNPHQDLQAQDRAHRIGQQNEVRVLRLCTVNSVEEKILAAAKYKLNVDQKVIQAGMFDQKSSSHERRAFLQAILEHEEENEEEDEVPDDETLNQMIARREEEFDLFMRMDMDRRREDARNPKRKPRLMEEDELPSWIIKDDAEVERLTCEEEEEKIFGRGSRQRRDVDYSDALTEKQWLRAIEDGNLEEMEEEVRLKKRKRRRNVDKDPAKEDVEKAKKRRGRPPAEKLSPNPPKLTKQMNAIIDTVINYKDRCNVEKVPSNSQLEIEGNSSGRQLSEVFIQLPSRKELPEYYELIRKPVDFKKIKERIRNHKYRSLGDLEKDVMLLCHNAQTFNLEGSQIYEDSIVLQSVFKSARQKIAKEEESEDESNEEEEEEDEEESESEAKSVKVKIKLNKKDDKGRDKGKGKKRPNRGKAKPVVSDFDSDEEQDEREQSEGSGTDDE
T2 sequence (P51532 whole entry, the tested form may be a part): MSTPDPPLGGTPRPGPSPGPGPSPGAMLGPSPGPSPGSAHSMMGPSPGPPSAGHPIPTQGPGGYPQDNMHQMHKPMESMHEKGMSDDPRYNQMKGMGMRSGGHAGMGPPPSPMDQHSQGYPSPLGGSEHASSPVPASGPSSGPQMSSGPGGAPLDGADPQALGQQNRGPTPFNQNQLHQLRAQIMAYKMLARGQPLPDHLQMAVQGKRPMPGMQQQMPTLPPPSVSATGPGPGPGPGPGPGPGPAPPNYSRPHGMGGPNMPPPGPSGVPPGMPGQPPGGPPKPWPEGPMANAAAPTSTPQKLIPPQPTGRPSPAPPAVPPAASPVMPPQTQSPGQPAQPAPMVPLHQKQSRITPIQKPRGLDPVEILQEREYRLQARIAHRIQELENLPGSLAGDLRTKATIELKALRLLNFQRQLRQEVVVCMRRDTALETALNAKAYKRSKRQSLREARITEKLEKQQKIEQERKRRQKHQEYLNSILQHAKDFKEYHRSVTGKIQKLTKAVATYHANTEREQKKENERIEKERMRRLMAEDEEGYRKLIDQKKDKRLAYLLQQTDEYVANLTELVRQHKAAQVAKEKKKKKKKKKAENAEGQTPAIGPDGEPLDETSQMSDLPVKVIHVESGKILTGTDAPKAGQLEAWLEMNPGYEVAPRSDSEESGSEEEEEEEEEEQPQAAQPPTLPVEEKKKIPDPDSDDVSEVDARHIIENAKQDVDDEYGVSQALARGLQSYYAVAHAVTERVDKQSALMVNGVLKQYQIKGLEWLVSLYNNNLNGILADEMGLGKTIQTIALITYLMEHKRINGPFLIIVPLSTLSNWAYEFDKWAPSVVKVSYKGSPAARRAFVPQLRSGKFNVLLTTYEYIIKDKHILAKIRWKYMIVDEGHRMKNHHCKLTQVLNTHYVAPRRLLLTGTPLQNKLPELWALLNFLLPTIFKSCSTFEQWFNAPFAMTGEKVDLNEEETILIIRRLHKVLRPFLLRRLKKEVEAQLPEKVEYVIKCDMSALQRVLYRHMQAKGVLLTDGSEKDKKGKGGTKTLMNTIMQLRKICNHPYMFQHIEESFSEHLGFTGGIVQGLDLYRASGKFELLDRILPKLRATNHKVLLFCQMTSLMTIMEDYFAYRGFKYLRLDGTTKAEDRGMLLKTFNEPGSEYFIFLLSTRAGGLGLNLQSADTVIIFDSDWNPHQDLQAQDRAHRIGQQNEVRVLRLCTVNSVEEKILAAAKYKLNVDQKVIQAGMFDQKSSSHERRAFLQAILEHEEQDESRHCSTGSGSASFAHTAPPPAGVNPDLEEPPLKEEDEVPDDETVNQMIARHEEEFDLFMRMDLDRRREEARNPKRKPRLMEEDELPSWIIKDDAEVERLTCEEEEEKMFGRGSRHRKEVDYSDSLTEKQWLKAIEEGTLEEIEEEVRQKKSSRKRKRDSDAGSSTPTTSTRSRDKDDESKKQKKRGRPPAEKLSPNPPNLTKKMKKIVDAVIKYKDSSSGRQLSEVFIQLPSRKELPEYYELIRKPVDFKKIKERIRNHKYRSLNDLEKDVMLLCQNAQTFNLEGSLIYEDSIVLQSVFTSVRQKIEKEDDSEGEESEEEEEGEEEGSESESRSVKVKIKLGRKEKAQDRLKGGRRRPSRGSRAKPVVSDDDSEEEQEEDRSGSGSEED

DC50 [1] [µM] | Dmax [2] [%] | DC50 [2] [µM] | SMILES | BRM HiBit Degradation Maximum (%) [1]
≥ 1 | < 50 | ≥ 1 | Cc1ncsc1-c1ccc([C@H](C)NC(=O)[C@@H]2C[C@@H](O)CN2C(=O)[C@@H](c2cc(OCCNC(=O)[C@@H]3CCc4sc5nnc(-c6ccccc6O)cc5c4C3)no2)C(C)C)cc1 [Compound 46, (R)-N-(2-((5-((R)-1-((2S,4R)-4-hydroxy-2-(((S)-1-(4-(4-methylthiazol-5-yl)phenyl)ethyl)carbamoyl)pyrrolidin-1-yl)-3-methyl-1-oxobutan-2-yl)isoxazol-3-yl)oxy)ethyl)-3-(2-hydroxyphenyl)-5,6,7,8-tetrahydrobenzo[4,5]thieno[2,3-c]pyridazine-6-carboxamide] | C (“C” indicates maximum degradation < 50%)
≥ 1 | ≥ 75 | ≥ 1 | Cc1ncsc1-c1ccc(CNC(=O)[C@@H]2C[C@@H](O)CN2C(=O)[C@@H](NC(=O)CCCC(=O)N2CC(c3sc4nnc(-c5ccccc5O)cc4c3C)C2)C(C)(C)C)cc1 [Compound 19] | A (“A” indicates maximum degradation ≥ 75%)
≥ 0.01 | < 50 | ≥ 1 | Cc1ncsc1-c1ccc([C@H](C)NC(=O)[C@@H]2C[C@@H](O)CN2C(=O)[C@@H](c2cc(N3CCC(CN4CC(c5sc6nnc(-c7ccccc7O)cc6c5C)C4)CC3)no2)C(C)C)cc1 [Compound 108, (2S,4R)-4-hydroxy-1-((R)-2-(3-(4-((3-(3-(2-hydroxyphenyl)-5-methylthieno[2,3-c]pyridazin-6-yl)azetidin-1-yl)methyl)piperidin-1-yl)isoxazol-5-yl)-3-methylbutanoyl)-N-((S)-1-(4-(4-methylthiazol-5-yl)phenyl)ethyl)pyrrolidine-2-carboxamide] | A (“A” indicates maximum degradation ≥ 75%)
≥ 1 | < 50 | ≥ 1 | Cc1ncsc1-c1ccc(CNC(=O)[C@@H]2C[C@@H](O)CN2C(=O)[C@@H](NC(=O)CCN2CC(c3cc4cc(-c5ccccc5O)nnc4s3)C2)C(C)(C)C)cc1 [Compound 26] | C (“C” indicates maximum degradation < 50%)
≥ 1 | < 50 | ≥ 1 | Cc1ncsc1-c1ccc(CNC(=O)[C@@H]2C[C@@H](O)CN2C(=O)[C@@H](NC(=O)CCC(=O)N2CCC(c3cc4cc(-c5ccccc5O)nnc4s3)CC2)C(C)(C)C)cc1 [Compound 27] | B (“B” indicates maximum degradation ≥ 50%)
≥ 1 | < 50 | ≥ 1 | Cc1ncsc1-c1ccc(CNC(=O)[C@@H]2C[C@@H](O)CN2C(=O)[C@@H](NC(=O)CCCCC(=O)N2CC(c3cc4cc(-c5ccccc5O)nnc4s3)C2)C(C)(C)C)cc1 [Compound 30] | C (“C” indicates maximum degradation < 50%)
≥ 1 | < 50 | ≥ 1 | Cc1ncsc1-c1ccc([C@H](C)NC(=O)[C@@H]2C[C@@H](O)CN2C(=O)[C@@H](c2cc(OCCN3CCc4sc5nnc(-c6ccccc6O)cc5c4C3)no2)C(C)C)cc1 [Compound 109, (2S,4R)-4-hydroxy-1-((R)-2-(3-(2-(3-(2-hydroxyphenyl)-7,8-dihydropyrido[3′,4′:4,5]thieno[2,3-c]pyridazin-6(5H)-yl)ethoxy)isoxazol-5-yl)-3-methylbutanoyl)-N-((S)-1-(4-(4-methylthiazol-5-yl)phenyl)ethyl)pyrrolidine-2-carboxamide] | C (“C” indicates maximum degradation < 50%)
≥ 0.1 | < 50 | ≥ 1 | Cc1ncsc1-c1ccc([C@H](C)NC(=O)[C@@H]2C[C@@H](O)CN2C(=O)[C@@H](c2cc(N3CCC(C(=O)N4CCc5sc6nnc(-c7ccccc7O)cc6c5C4)CC3)no2)C(C)C)cc1 [Compound 11, (2S,4R)-4-hydroxy-1-((R)-2-(3-(4-(3-(2-hydroxyphenyl)-5,6,7,8-tetrahydropyrido[3′,4′:4,5]thieno[2,3-c]pyridazine-6-carbonyl)piperidin-1-yl)isoxazol-5-yl)-3-methylbutanoyl)-N—((S)-1-(4-(4-methylthiazol-5-yl)phenyl)ethyl)pyrrolidine-2-carboxamide] | A (“A” indicates maximum degradation ≥ 75%)
≥ 1 | < 50 | ≥ 1 | Cc1ncsc1-c1ccc([C@H](C)NC(=O)[C@@H]2C[C@@H](O)CN2C(=O)[C@@H](c2cc(OCC(=O)N3CCc4sc5nnc(-c6ccccc6O)cc5c4C3)no2)C(C)C)cc1 [Compound 91, (2S,4R)-4-hydroxy-1-((R)-2-(3-(2-(3-(2-hydroxyphenyl)-7,8-dihydropyrido[3′,4′:4, 5]thieno[2,3-c]pyridazin-6(5H)-yl)-2-oxoethoxy)isoxazol-5-yl)-3-methylbutanoyl)-N-((S)-1-(4-(4-methylthiazol-5-yl)phenyl)ethyl)pyrrolidine-2-carboxamide] | C (“C” indicates maximum degradation < 50%)
≥ 1 | < 50 | ≥ 1 | Cc1ncsc1-c1ccc(CNC(=O)[C@@H]2C[C@@H](O)CN2C(=O)[C@@H](NC(=O)CCCCC(=O)N2CCC(c3cc4cc(-c5ccccc5O)nnc4s3)CC2)C(C)(C)C)cc1 [Compound 29] | C (“C” indicates maximum degradation < 50%)
≥ 1 | < 50 | ≥ 1 | Cc1ncsc1-c1ccc([C@H](C)NC(=O)[C@@H]2C[C@@H](O)CN2C(=O)[C@@H](c2cc(N3CCC(N4CCc5sc6nnc(-c7ccccc7O)cc6c5C4)CC3)no2)C(C)C)cc1 [Compound 70, (2S,4R)-4-hydroxy-1-((R)-2-(3-(4-(3-(2-hydroxyphenyl)-7,8-dihydropyrido[3′,4′:4,5]thieno[2,3-c]pyridazin-6(5H)-yl)piperidin-1-yl)isoxazol-5-yl)-3-methylbutanoyl)-N-((S)-1-(4-(4-methylthiazol-5-yl)phenyl)ethyl)pyrrolidine-2-carboxamide] | C (“C” indicates maximum degradation < 50%)
< 0.01 | ≥ 75 | ≥ 0.01 | Cc1ncsc1-c1ccc([C@H](C)NC(=O)[C@@H]2C[C@@H](O)CN2C(=O)[C@@H](c2cc(C34CC(CN5CCC(c6sc7nnc(-c8ccccc8O)cc7c6C)CC5)(C3)C4)no2)C(C)C)cc1 [Compound 72, (2S,4R)-4-hydroxy-1-[(2R)-2-{3-[3-({4-[3-(2-hydroxyphenyl)-5-methylthieno[2,3-c]pyridazin-6-yl]piperidin-1-yl}methyl)bicyclo[1.1.1]pentan-1-yl]-1,2-oxazol-5-yl}-3-methylbutanoyl]-N-[(1S)-1-[4-(4-methyl-1,3-thiazol-5-yl)phenyl]ethyl]pyrrolidine-2-carboxamide] | A (“A” indicates maximum degradation ≥ 75%)
